Test results published in patent US20150094474A1, “AGRICULTURAL CHEMICALS” (Redx Pharma Ltd., priority 2012, published 2015).

Tested on: peas
Experiment: Herbicidal bioassay, peas (% necrosis)
Type: in vivo
In short: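 Scoring of % necrosis followed EPPO guideline PP1/135 at specified growth intervals, five replicates per species and treatment. Plants at the 2-4 true leaf stage received Potter-tower sprays of DMSO-diluted compounds across six levels from 0.0001% to 0.05%, with water and DMSO controls.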

Measured: Sum of % necrosis in Peas

CCOC(=O)C(C)Oc1ccc(Oc2ccc(C(F)(F)F)cn2)cc1 (stereo not drawn) [Fluazifop Ethyl ester (62)]
A (over 80% necrosis): Dose 0.00001, Day 14 | Dose 0.00001, Day 21 | Dose 0.00005, Day 14 | Dose 0.00005, Day 21 | Dose 0.0001, Day 14 | Dose 0.0001, Day 21 | Dose 0.0005, Day 21
C (less than 50% necrosis): Dose 0.000001, Day 0 | Dose 0.000001, Day 1 | Dose 0.000001, Day 3 | Dose 0.000001, Day 7 | Dose 0.000001, Day 10 | Dose 0.000001, Day 14 | Dose 0.000001, Day 21 | Dose 0.000005, Day 0 | Dose 0.000005, Day 1 | Dose 0.000005, Day 3 | Dose 0.000005, Day 7 | Dose 0.000005, Day 10 | Dose 0.00001, Day 0 | Dose 0.00001, Day 1 | Dose 0.00001, Day 3 | Dose 0.00001, Day 7 | Dose 0.00005, Day 0 | Dose 0.00005, Day 1 | Dose 0.00005, Day 3 | Dose 0.00005, Day 7 | Dose 0.0001, Day 0 | Dose 0.0001, Day 1 | Dose 0.0001, Day 3 | Dose 0.0001, Day 7 | Dose 0.0005, Day 0 | Dose 0.0005, Day 1 | Dose 0.0005, Day 3 | Dose 0.0005, Day 7 | Dose 0.0005, Day 10 | Dose 0.0005, Day 14
B (50%-80% necrosis): Dose 0.000005, Day 14 | Dose 0.000005, Day 21 | Dose 0.00001, Day 10 | Dose 0.00005, Day 10 | Dose 0.0001, Day 10
